Test results published in US9241927B2, “Pharmaceutical compositions comprising sigma receptor ligands” (Laboratories Del Dr, Esteve, S.A., priority 2009, dated 2016).

Key:
[1] = pH solubility profile of API-001; format: physicochemical
Description: (§1) API-001 has a pKa 6.8, being a weakly basic drug and having a solubility strongly influenced by pH of the medium.
Therefore, it is expected that the extrusion-spheronization pellets of the invention to be absorbed over all the intestinal tract.

pKa of API-001 = format: physicochemical
Description: as §1

- solubility ([1]; pH 6.8, aqueous buffer): 0.6 mg/mL
- pKa (pKa of API-001): 6.8
SMILES: Cc1cc(OCCN2CCOCC2)nn1-c1ccc2ccccc2c1.Cl [API-001, 4-{2-[5-Methyl-1-(naphthalen-2-yl)-1H-pyrazol-3-yloxy]ethyl}morpholine hydrochloride]
- pH solubility profile ([1]; FIG. 2): solubility of API-001 is decreasing when is increasing the pH of the medium
